In patent publication US20240408169A1 (priority 2023, published 2024):
pIC50: −log10 of the molar value. *1 amine or outer side, *2 acyl side, *3 side chain or, on linkers, in order; H or OH if unused. Where a SMILES comes first, the peptide text is derived from it. Bridges are numbered along the chain shown (N, C = ends). [ ]: non-standard residue; d: D form. The star is where a group is joined. X82 = CN([C@@H](Cc1cc(Cl)ccc1-c1cnn(S(C)(=O)=O)c1)C(=O)[*:2])[*:1]; NMehhhLys(Me) = CN([C@@H](CCCCCCCN(C)[*:3])C(=O)[*:2])[*:1]; X22 = CN([C@@H](Cc1cc(Cl)ccc1-c1cnn(C)c1)C(=O)[*:2])[*:1]; NMe(hhhLys) = CN([C@@H](CCCCCCCN[*:3])C(=O)[*:2])[*:1]; cBuCO(3,3-F2-1-CF3) = O=C(C1(C(F)(F)F)CC(F)(F)C1)*; NMePhe(2,5-Cl2) = CN[C@@H](Cc1cc(Cl)ccc1Cl)C(=O)O; Pro(trans-4-F) = O=C(O)[C@@H]1C[C@@H](F)CN1; Pivaloyl(3,3,3-F3) = CC(C)(C(=O)*)C(F)(F)F; X155 = C[C@@](O)(C(=O)*)C(F)(F)F; Gly(cPr) = N[C@H](C(=O)O)C1CC1

What was measured:
[1] = molecular target: T1, CyclinB1/CDK1 (Homo sapiens, UniProt P14635); assay: Fluorescence Polarization (FP) competitive binding assay, Cyclin B1/Cdk1; conditions: 10 nM Cyclin B1/Cdk1, 2 nM FAM probe; average of 2-3 independent experiments; read-out: Cyclin B FP IC50;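 also: fluorescence polarization read after equilibration at room temperature, with IC50 taken from serially diluted dose-response curves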
T1 construct: purchased Eurofins, discovery 14-450

[2] = molecular target: T2, CyclinA2/CDK2 (Homo sapiens, UniProt P20248); assay: Fluorescence Polarization (FP) competitive binding assay, Cyclin A2/Cdk2; conditions: 8 nM Cyclin A2/Cdk2, 2 nM FAM probe; average of 2-3 independent experiments; read-out: Cyclin A FP IC50;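 also: plates equilibrated two hours at room temperature before polarization reading, IC50 fitted from eight-concentration compound titration curves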
T2 construct: purchased CRELUX Protein Services

[3] = molecular target: T3, CyclinE1/CDK2 (Homo sapiens, UniProt P24864); assay: Fluorescence Polarization (FP) competitive binding assay, Cyclin E1/Cdk2; conditions: 10 nM Cyclin E1/Cdk2, 2 nM FAM probe; average of 2-3 independent experiments; read-out: Cyclin E FP IC50;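 also: readings taken after two-hour equilibration at room temperature in HEPES buffer with NaCl, DTT, NP-40 and BSA, IC50 fitted from eight-concentration serial dilution series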
T3 construct: purchased Eurofins, discovery 14-475

[4] = tested on: NCI-H1048 cells; assay: MTT proliferation assay, NCI-H1048; format: cell-based; conditions: 5 days compound exposure, 1:3 serial dilution starting at 10 μM;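 also: Dose-response in 96-well plates over 8 or 10 concentration points, with exposure spanning 3-4 cell doublings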
[5] = tested on: OVCAR3 cells; assay: MTT proliferation assay, OVCAR3; format: cell-based; conditions: 5 days compound exposure, 1:3 serial dilution starting at 10 μM;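 also: compound given as an 8- or 10-point series, one day after plating, with exposure covering roughly 3-4 cell doublings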

For `CC(C)C[C@@H]1NC(=O)[C@@H](N(C)C(=O)[C@@H](NC(=O)[C@@H]2C[C@@H](F)CN2C(=O)C2(C(F)(F)F)CC(F)(F)C2)C2CC2)CC=CCCCCNC(=O)[C@H](Cc2cc(Cl)ccc2C2=CCN(C(=O)C(C)(C)C)CC2)N(C)C1=O` [Example 91], the pIC50 [1] was 7.70, the pIC50 [2] was 7.00 and the pIC50 [3] was 5.24. It also gave a GI50 [4] of 230 nM and a GI50 [5] of 260 nM.
For `CC(C)C[C@@H]1NC(=O)[C@@H](N(C)C(=O)[C@@H](NC(=O)[C@@H]2C[C@@H](F)CN2C(=O)C2(C(F)(F)F)CC(F)(F)C2)C2CC2)CCC=CCCCNC(=O)[C@H](Cc2cc(Cl)ccc2-c2cnn(S(C)(=O)=O)c2)N(C)C1=O` [Example 273, (2S,4R)—N—((S)-2-(((3S,6S,9S)-3-(5-chloro-2-(1-(methylsulfonyl)-1H-pyrazol-4-yl)benzyl)-6-isobutyl-4-methyl-2,5,8-trioxo-1,4,7-triazacyclohexadec-12-en-9-yl)(methyl)amino)-1-cyclopropyl-2-oxoethyl)-1-(3,3-difluoro-1-(trifluoromethyl)cyclobutane-1-carbonyl)-4-fluoropyrrolidine-2-carboxamide], the pIC50 [1] was 7.70, the pIC50 [2] was 7.30 and the pIC50 [3] was 5.71. The GI50 [4] was 30 nM and the GI50 [5] was 40 nM.
Compound `Cc1nnc(-c2ccc(Cl)cc2C[C@H]2C(=O)NCCCCC=CC[C@H](N(C)C(=O)[C@@H](NC(=O)[C@@H]3C[C@@H](F)CN3C(=O)C3(C(F)(F)F)CCC3)C3CC3)C(=O)N[C@@H](CC(C)C)C(=O)N2C)o1` (single isomer, unassigned) [Example 117-P1] has a pIC50 [1] of 7.70, a pIC50 [2] of 7.10 and a pIC50 [3] of 6.47. It also gave a GI50 [4] of 230 nM and a GI50 [5] of 180 nM.
For `CC(C)C[C@@H]1NC(=O)[C@@H](N(C)C(=O)[C@@H](NC(=O)[C@@H]2C[C@@H](F)CN2C(=O)C(C)(C)C(F)(F)F)C2CC2)CCCCCCCN(C)C(=O)[C@H](Cc2cc(Cl)ccc2-c2cnn(S(C)(=O)=O)c2)N(C)C1=O` [Example 301] ({Pivaloyl(3,3,3-F3)}-[Pro(trans-4-F)][Gly(cPr)][NMehhhLys(Me)]L[X82]; lactam 3-C), the pIC50 [1] was 7.70, the pIC50 [2] was 7.40 and the pIC50 [3] was 6.49. For the same compound, the GI50 [4] was 20 nM and the GI50 [5] was 20 nM.
With `CC(C)C[C@@H]1NC(=O)[C@@H](N(C)C(=O)[C@@H](NC(=O)[C@@H]2C[C@@H](F)CN2C(=O)C2(C(F)(F)F)CC(F)(F)C2)C2CC2)CC=CCCCCN(C)C(=O)[C@H](Cc2cc(F)ccc2-c2cnn(S(C)(=O)=O)c2)N(C)C1=O` [Example 87] the pIC50 [1] was 7.70, the pIC50 [2] was 6.74 and the pIC50 [3] was 6.05. For the same compound, the GI50 [4] was 50 nM and the GI50 [5] was 60 nM.
`CC(C)C[C@@H]1NC(=O)[C@@H](N(C)C(=O)[C@@H](NC(=O)[C@@H]2CCCN2C(=O)C2(C(F)(F)F)CC(F)(F)C2)C2CC2)CCCCCCCN(C)C(=O)[C@H](Cc2cc(Cl)ccc2-c2cnn(C)c2)N(C)C1=O` [Example 77] ({cBuCO(3,3-F2-1-CF3)}-P[Gly(cPr)][NMehhhLys(Me)]L[X22]; lactam 3-C) was tested, and the pIC50 [1] was 7.70, the pIC50 [2] was 7.70 and the pIC50 [3] was 5.77. For the same compound, the GI50 [4] was 60 nM and the GI50 [5] was 70 nM.
`Cc1nnc(-c2ccc(Cl)cc2C[C@H]2C(=O)NCCCCC=CC[C@H](N(C)C(=O)[C@@H](NC(=O)[C@@H]3C[C@@H](F)CN3C(=O)C3(C(F)(F)F)CC(F)(F)C3)C3CC3)C(=O)N[C@@H](CC(C)C)C(=O)N2C)o1` (single isomer, unassigned) [Example 118-P1] showed a pIC50 [1] of 7.70, a pIC50 [2] of 6.96 and a pIC50 [3] of 6.13. For the same compound, the GI50 [4] was 180 nM and the GI50 [5] was 170 nM.
`CC(C)C[C@@H]1NC(=O)[C@@H](N(C)C(=O)[C@H](C)NC(=O)[C@@H]2C[C@@H](F)CN2C(=O)C2(C(F)(F)F)CC(F)(F)C2)CCCCCCCNC(=O)[C@H](Cc2cc(Cl)ccc2Cl)N(C)C1=O` [Example 55] ({cBuCO(3,3-F2-1-CF3)}-[Pro(trans-4-F)]A[NMe(hhhLys)]L[NMePhe(2,5-Cl2)]; lactam 3-C) was tested, and the pIC50 [1] was 7.10, the pIC50 [2] was 6.15 and the pIC50 [3] was 5.41. It also gave a GI50 [4] of 560 nM and a GI50 [5] of 710 nM.
Work on `CC(C)C[C@@H]1NC(=O)[C@@H](N(C)C(=O)[C@@H](NC(=O)[C@@H]2C[C@@H](F)CN2C(=O)[C@@](C)(O)C(F)(F)F)C2CC2)CCCCCCCNC(=O)[C@H](Cc2cc(Cl)ccc2Cl)N(C)C1=O` [Example 10] (X155-[Pro(trans-4-F)][Gly(cPr)][NMe(hhhLys)]L[NMePhe(2,5-Cl2)]; lactam 3-C) yielded a pIC50 [1] of 7.70, a pIC50 [2] of 7.00 and a pIC50 [3] of 6.92. For the same compound, the GI50 [4] was 20 nM and the GI50 [5] was 30 nM.
